Laboratory results taken from patent US20230278972A1, “SUBSTITUTED HALOALKYL SULFONANILIDE HERBICIDES” (FMC Corporation, priority 2020, published 2023).

Test system: ragweed (common ragweed, Ambrosia artemisiifolia)
Assay: Test A1 preemergence, ragweed
Assay type: in vivo
Outline: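 Plants grown in pots of loam/sand mix; preemergence = soil-directed spray on seeded pots, postemergence = spray at 1–2 leaves, height 2–10 cm; test chemicals formulated in non-phytotoxic solvent with surfactant.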

[1] = 31 g ai/ha, 0 to 100 scale (0 no effect, 100 complete control)
[2] = 125 g ai/ha, 0 to 100 scale, 0 no effect, 100 complete control

SMILES | Plant response rating, Ragweed [1] | Plant response rating, Ragweed [2]
CCOC(=O)N(c1cc(C(=O)N2C[C@@H](C)O[C@@H](C)C2)c(C)c(C)c1C)S(=O)(=O)C(F)(F)F [Compound 332] | 50 | 80
COCC1CC(c2cc(NS(=O)(=O)C(F)(F)F)c(C)cc2C)=NO1 (stereo not drawn) [Compound 319] | 0 | 70
Cc1c(C(=O)N2CCCCC2)cc(N(COC(=O)C(C)(C)C)S(=O)(=O)C(F)(F)F)c(C)c1C [Compound 329, [[(Trifluoromethyl)sulfonyl][2,3,4-trimethyl-5-(1-piperidinylcarbonyl)phenyl]amino]methyl 2,2-dimethylpropanoate] | 60 | 70
Cc1cc(C)c(C2=NOC3COCC23)cc1NS(=O)(=O)C(F)(F)F (stereo not drawn) [Compound 297] | 20 | 60
Cc1cc(C)c(C2=NOC3(C)CCCC23)cc1NS(=O)(=O)C(F)(F)F (stereo not drawn) [Compound 340] | 10 | 90
Cc1c(C2=NO[C@@H]3CCC[C@H]23)cc(N(COC(=O)C(C)(C)C)S(=O)(=O)C(F)(F)F)c(C)c1C [Compound 336, [[(Trifluoromethyl)sulfonyl][2,3,4-trimethyl-5-[(3aR,6aR)-3a,5,6,6a-tetrahydro-4H-cyclopent[d]isoxazol-3-yl]phenyl]amino]methyl 2,2-dimethylpropanoate] | 0 | 50
Cc1c(NS(=O)(=O)C(F)(F)F)cc(C(=O)N2CC(C)OC(C)C2)c(C)c1C (stereo not drawn) [Compound 327] | 90 | 90
C#CCN(C)C(=O)c1cc(NS(=O)(=O)C(F)(F)F)c(C)c(C)c1C [Compound 368] | 50 | 80
CCOC(=O)N(c1cc(C(=O)N2CCC(F)(F)CC2)c(C)cc1C)S(=O)(=O)C(F)(F)F [Compound 351] | 50 | 90
Cc1cc(C2CC2)c(NS(=O)(=O)C(F)(F)F)cc1C1=NOC2(CCCC2)C1 [Compound 313] | 0 | 0
Cc1cc(C)c(N(COC(=O)C(C)(C)C)S(=O)(=O)C(F)(F)F)cc1C1=NOC2(C)CCCC12 (stereo not drawn) [Compound 341] | 0 | 0
COC1CCN(C(=O)c2cc(N(COC(=O)C(C)(C)C)S(=O)(=O)C(F)(F)F)c(C)c(C)c2C)CC1 [Compound 370] | 0 | 70
Cc1c(NS(=O)(=O)C(F)(F)F)cc(C(=O)N2CCCCC2)c(C)c1C [Compound 326] | 90 | 90
COc1cnn(-c2cc(NS(=O)(=O)C(F)(F)F)c(C)cc2C)c(=O)c1OC [Compound 282] | 0 | 20
Cc1c(C(=O)N(C)C)cc(NS(=O)(=O)C(F)(F)F)c(Cl)c1F [Compound 320] | 60 | 70
Cc1c(C(=O)N2CCC(C)CC2)cc(N(COC(=O)C(C)(C)C)S(=O)(=O)C(F)(F)F)c(C)c1C [Compound 369] | 0 | 90
Cc1cc(C)c(N(C(=O)OC(C)C)S(=O)(=O)C(F)(F)F)cc1C1=NOC2CCCC12 (stereo not drawn) [Compound 295] | 0 | 0
CCOC1CC(c2cc(N(COC(=O)C(C)(C)C)S(=O)(=O)C(F)(F)F)c(C)cc2C)=NO1 (stereo not drawn) [Compound 339] | 20 | 50
CCOC(=O)N(c1cc(C(=O)N2CCC(C)CC2)c(C)cc1C)S(=O)(=O)C(F)(F)F [Compound 354] | 20 | 50
Cc1c(NS(=O)(=O)C(F)(F)F)cc(C(=O)N(C)C)c(C)c1Cl [Compound 287] | 0 | 80
Cc1c(NS(=O)(=O)C(F)(F)F)cc(C(=O)N2CCC(Cl)CC2)c(C)c1C [Compound 356] | 0 | 0
